1 compound from PMC4154495 (Molecular cancer therapeutics, 2014) can be followed below.

Molecules are shown by their SMILES.

The target of this assay is T1, ETV1 (ETS variant 1) (Homo sapiens, UniProt P50549).
T1 sequence (P50549 1-477): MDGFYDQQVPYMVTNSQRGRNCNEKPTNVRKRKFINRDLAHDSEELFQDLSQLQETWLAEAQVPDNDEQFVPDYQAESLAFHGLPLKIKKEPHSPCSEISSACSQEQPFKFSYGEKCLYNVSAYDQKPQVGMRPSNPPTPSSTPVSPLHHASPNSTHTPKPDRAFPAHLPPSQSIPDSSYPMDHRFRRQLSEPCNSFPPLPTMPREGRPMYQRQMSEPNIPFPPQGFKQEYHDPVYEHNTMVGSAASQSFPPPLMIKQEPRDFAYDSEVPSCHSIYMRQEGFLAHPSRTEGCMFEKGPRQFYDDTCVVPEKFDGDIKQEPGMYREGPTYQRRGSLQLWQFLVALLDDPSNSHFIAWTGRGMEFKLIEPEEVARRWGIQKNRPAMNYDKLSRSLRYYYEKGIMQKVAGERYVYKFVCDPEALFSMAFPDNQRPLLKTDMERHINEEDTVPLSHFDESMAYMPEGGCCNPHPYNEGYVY
Nature of the assay: SPR. Format: binding.

As a reminder, the Kd is the free concentration of one partner at which half of the binding sites on the other are occupied at equilibrium, for simple one-to-one binding. Low values mean higher affinity, high ones lower affinity. Compound `COc1ccc(Nc2nc(N)nc(CN3CCCCC3)n2)cc1` [compound 1, BRD32048] came in with an equilibrium dissociation constant (Kd) of 17.1 µM.
